Measurements as given in the supplement of paper PMC4862054.

Experiments:
Details in all cases: incubation time: 72 h
[1] = test system: BT-474; experiment: normalised response (% of control), CellTox Green; higher = less cell death (100 = DMSO, 0 = benzethonium chloride kill control)
In short: (§1)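 After 72 h with compound in 384-well plates, breast cancer cell lines seeded as 20 µl suspension were read for CellTox Green fluorescence at 485/520 nm. CellTiter-Glo luminescence was then read after 10 min at room temperature. Compound was present at 5 concentrations in 10-fold steps over a 10,000-fold range set per compound, and plates were normalised to 0.1 % DMSO (100) and a positive kill control (0). Values are normalised signals, each at a single concentration.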

[2] = test system: CAL-120; experiment: as above
In short: as §1

[3] = test system: CAL-148; experiment: as above
In short: as §1

[4] = test system: CAL-51; experiment: as above
In short: as §1

[5] = test system: CAL-85-1; experiment: as above
In short: as §1

[6] = test system: DU-4475; experiment: as above
In short: as §1

[7] = test system: HCC1599; experiment: as above
In short: as §1

[8] = test system: HDQ-P1; experiment: as above
In short: as §1

[9] = test system: Hs578T; experiment: as above
In short: as §1

[10] = test system: MCF-10A; experiment: as above
In short: as §1

[11] = test system: MDA-MB-231; experiment: as above
In short: as §1

[12] = test system: MDA-MB-436; experiment: as above
In short: as §1

[13] = test system: MDA-MB-453; experiment: as above
In short: as §1

[14] = test system: MDA-MB-468; experiment: as above
In short: as §1

[15] = test system: MFM-223; experiment: as above
In short: as §1

[16] = test system: BT-474; experiment: normalised response (% of control), CellTiter-Glo; higher = more viable cells (100 = DMSO, 0 = benzethonium chloride kill control)
Protocol: (§2)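 DSRT, 72 h incubation, CellTox Green / CellTiter-Glo readout. Signal is normalised to DMSO and benzethonium chloride controls. Value is the normalised response at the highest dose.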

[17] = test system: BT-549; experiment: as above
Protocol: as §2

[18] = test system: CAL-120; experiment: as above
Protocol: as §2

[19] = test system: CAL-148; experiment: as above
Protocol: as §2

[20] = test system: CAL-51; experiment: as above
Protocol: as §2

[21] = test system: CAL-85-1; experiment: as above
Protocol: as §2

[22] = test system: DU-4475; experiment: as above
Protocol: as §2

[23] = test system: HCC1143; experiment: as above
Protocol: as §2

[24] = test system: HCC1599; experiment: as above
Protocol: as §2

[25] = test system: HCC1937; experiment: as above
Protocol: as §2

[26] = test system: HDQ-P1; experiment: as above
Protocol: as §2

[27] = test system: Hs578T; experiment: as above
Protocol: as §2

[28] = test system: MCF-10A; experiment: as above
Protocol: as §2

[29] = test system: MDA-MB-231; experiment: as above
Protocol: as §2

[30] = test system: MDA-MB-436; experiment: as above
Protocol: as §2

[31] = test system: MDA-MB-453; experiment: as above
Protocol: as §2

[32] = test system: MDA-MB-468; experiment: as above
Protocol: as §2

[33] = test system: MFM-223; experiment: as above
Protocol: as §2

[34] = test system: SK-BR-3; experiment: as above
Protocol: as §2

[35] = test system: BT-549; experiment: normalised response (% of control), CellTox Green; higher = less cell death (100 = DMSO, 0 = benzethonium chloride kill control)
In short: as §1

[36] = test system: HCC1143; experiment: as above
In short: as §1

[37] = test system: HCC1937; experiment: as above
In short: as §1

SMILES | normalised response [1] | normalised response [2] | normalised response [3] | normalised response [4] | normalised response [5] | normalised response [6] | normalised response [7] | normalised response [8] | normalised response [9] | normalised response [10] | normalised response [11] | normalised response [12] | normalised response [13] | normalised response [14] | normalised response [15] | normalised response [16] | normalised response [17] | normalised response [18] | normalised response [19] | normalised response [20] | normalised response [21] | normalised response [22] | normalised response [23] | normalised response [24] | normalised response [25] | normalised response [26] | normalised response [27] | normalised response [28] | normalised response [29] | normalised response [30] | normalised response [31] | normalised response [32] | normalised response [33] | normalised response [34] | normalised response [35] | normalised response [36] | normalised response [37]
CCn1c(C(=O)N(C2CC2)C2CC2)cc2c3c(ncn3C)c(Nc3cc(C)n(C)n3)nc21 (10000 nM) | 103% | 103% | 93% | 99.5% | 102% | 98.5% | 94% | 105% | 89.6% | 109% | 113% | 88.1% | 97.7% | 80.7% | 94.3% | 83.3% | 102% | 102% | 103% | 106% | 99.5% | 97.9% | 93.2% | 123% | 92.8% | 101% | 96% | 86.6% | 82.2% | 93.6% | 97% | 94.4% | 83.1% | 93.2% |  |  | 
CN[C@@H](C)C(=O)N[C@H]1CN(C(=O)CC(C)C)CC[C@H]2CC[C@@H](C(=O)NC(c3ccccc3)c3ccccc3)N2C1=O [AT-406] (10000 nM) | 89.4% | 41.2% | 66.9% | 83% | 0.8% | 95.4% | 97.5% |  | 92.7% | 112% | -35.9% | 85.5% | 93.2% | 57.3% | 103% | 16.4% | 64.9% | 61.1% | 91.2% | 90.8% | 41.9% | 97.9% | 85.5% | 97.5% | 88% | 84.5% | 94.1% | 106% | 14.2% | 93.2% | 58.1% | 65.1% | 102% | 89.6% | 83.8% | 108% | 84.8%
CCN(CC)CCCC(C)Nc1ccnc2cc(Cl)ccc12 (stereo unspecified) [Chloroquine] (100000 nM) | -2.97% | 8.39% | 24.9% | 28.5% | -51.4% | 48.9% | 57% | 23% | -118% | -62.8% | -46.1% | 42.2% | 1.49% | -27.6% | 0.04% | 2.13% | 0.71% | 7.89% | 0.47% | 1.42% | 0.53% | 0.38% | 22.8% | 0.3% | 3.72% | 0.97% | 0.3% | 1.88% | 0.24% | 1.76% | 0.26% | 1.06% | 0.63% | 0.25% | 30.4% | 67.2% | 18.7%
CC(C)(C)c1nc(-c2cccc(NS(=O)(=O)c3c(F)cccc3F)c2F)c(-c2ccnc(N)n2)s1 [Dabrafenib] (2500 nM) | 103% | 78.8% |  | 106% | 83.9% | 70.1% | 103% |  |  | 102% | 97.8% | 107% | 96.6% | 87% | 104% | 100% | 92.7% | 75.8% | 108% | 72.6% | 108% | 0.71% | 95% | 89.4% | 96.8% | 94% | 88% | 96% | 101% | 92.3% | 95.4% | 89.2% | 93.1% | 80.8% | 94.2% | 120% | 
Cc1nc(C(=O)NCC(=O)O)c(O)c2ccc(Oc3ccccc3)cc12 [FG-4592] (10000 nM) | 98% | 107% | 89.3% | 105% | 78.6% | 97.7% | 99.9% | 114% |  | 111% | 95.7% | 93.9% | 95.2% | 125% | 104% | 94.5% | 92% | 102% | 113% | 97.7% | 101% | 97% | 98.5% | 92% | 100% | 92% | 109% | 107% | 96.1% | 98.8% | 97.4% | 110% | 103% | 101% | 94.7% | 118% | 72.6%
